From patent EP2718307B1, “BETA-HAIRPIN PEPTIDOMIMETICS AS CXC4 ANTAGONISTS” (Polyphor AG, priority 2011, dated 2012)
Bridge positions count the residues as written; N and C are the ends. Square brackets hold non-standard residues; d marks the D form. Peptide text beside a SMILES is read from it. Lys(iPr) = CC(C)NCCCC[C@H](N)C(=O)O; Orn(iPr) = CC(C)NCCC[C@H](N)C(=O)O; Dab = NCC[C@H](N)C(=O)O

Assays:
[1] = Drug loading calculations via maintenance dose rate (rate of infusion); settings: CLiv-mouse values scaled by 0.127 (GFR human/GFR mouse)
Protocol: The drug load for an implant comprising a peptide of the invention was calculated following the basic principles in pharmacokinetics (see also J. Gabrielsson, D. Weiner, "Pharmacokinetics and Pharmaco-dynamics Data Analysis: Concepts and Applications", 4th edition, Swedish Pharmaceutical Press, Stockholm, Sweden, 2006) whereby the maintainance dose rate (rate of infusion, Rin) can be defined as the rate at which a drug is to be administered to reach a steady state of a certain dose in the plasma. The maintainance dose rate can be expressed using the correlation Rin [g/(h*kg)] = CLiv[L/(h*kg)] x Css,eff [g/L], wherein CLiv is the clearance (i.v. - admin.) and Css,eff the effective concentration of the drug in the plasma at steady state considering an efficacy margin A: Css,eff [g/L] = A x (IC50/fu) x MW [(mol/L)*(g/mol)]. Therefore, the total amount of a drug loaded into an implant providing for a constant effective concentration of that drug in the plasma for a certain period of time in a subject of a certain body weight can be calculated by applying the following correlation: Drugload [g/subject] = Rin [g/(h*kg)] x duration[h] x BW [kg/subject]. [formula]
Further pre-conditions are an efficacy margin of A = 3, a study duration of 672 h (28 days) and a body weight of a human suject of 70 kg. The glomerular filtration rate (GFR) which mainly influences the clearance of the peptides is highly dependent on the species. In general, the GFR of humans is averaged to be 107 mL/(h*kg) compared to the GFR of mouse being 840 mL/(h*kg). Therefore, the CLiv-mouse values indicated in Table 5b were allometrically scaled by 107 mL/(h*kg)/840 mL/(h*kg) = 0.127 before employed in the above described correlations.

[2] = biological target: T1, CXCR4 receptor (Homo sapiens, UniProt P61073); experiment: Chemotactic assay (cell migration assay): response of Namalwa cells to an SDF-1 gradient; assay type: cell-based
T1 construct: Namalwa cells (CXCR4 natively expressing non-adherent cells, ATCC CRL-1432); host or cells: Namalwa cells
T1 sequence (P61073 whole entry): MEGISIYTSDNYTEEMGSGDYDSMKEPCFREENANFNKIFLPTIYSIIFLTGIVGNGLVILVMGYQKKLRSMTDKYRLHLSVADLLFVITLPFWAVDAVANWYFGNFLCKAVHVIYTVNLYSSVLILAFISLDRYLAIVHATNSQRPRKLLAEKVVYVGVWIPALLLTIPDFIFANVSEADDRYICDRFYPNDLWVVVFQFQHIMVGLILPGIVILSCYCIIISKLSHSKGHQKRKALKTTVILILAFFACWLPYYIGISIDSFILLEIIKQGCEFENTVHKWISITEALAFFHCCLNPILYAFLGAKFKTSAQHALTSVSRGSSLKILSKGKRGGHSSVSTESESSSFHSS
Protocol: Namalwa cells (CXCR4 natively expressing non-adherent cells, ATCC CRL-1432) were cultured in RPMI1640 plus 10% FBS, and pen/strept. HELA cells were maintained in RPMI1640 plus 10% FBS, pen/strept and 2 mM L-glutamine. Cos-7 cells were grown in DMEM medium with […] glucose supplemented with 10% FCS, pen/strept and 2 mM L-glutamine. All cell lines were grown at 37 °C at 5% CO2. Cell media, media supplements, PBS-buffer, HEPES, antibiotic/antimycotic, pen/strept, non essential amino acid, L-glutamine, β-mercaptoethanol and sera were purchased from Gibco (Pailsey, UK). All fine chemicals were supplied by Merck (Darmstadt, Germany).
The chemotactic response of Namalwa cells (ATCC CRL-1432) to a gradient of stromal cell-derived factor 1α (SDF-1) was measured using a modified Boyden chamber chemotaxis system (ChemoTx; Neuroprobe). In this system, the upper chamber of each well is separated from the lower chamber containing the chemoattractant SDF-1 by a polycarbonate membrane (5µm pore size). A circular area of that membrane in the region that covers each lower well is enclosed by a hydrophobic mask to retain the cell suspension within this area. The system was prepared by loading the bottom wells with aliquots of […] chemotaxis medium (RPMI 1640 without Phenol red + 0.5% BSA) comprising either appropriate serial dilutions of peptides or no peptide at all in combination with SDF-1 (0.9 nM) or without the chemoattractant. The membrane was placed over the bottom wells, and aliquots of 50 µL of a suspension of Namalwa cells (3.6 x 10^6 cells/mL) in chemotaxis medium, premixed with chemotaxis medium comprising either appropriate serial dilutions of peptides or no peptide at all, was delivered onto each of the hydrophobically limited regions of the upper surface of the membrane. The cells were allowed to migrate into the bottom chamber for 5 h at 37 °C in 5% CO2. After this period, the membrane was removed and its topside was carefully wiped and washed with PBS to eliminate non-migrated cells. Migrated cells were transferred using a "funnel" adaptor to a receiving 96-well plate and the cell number was determined by using the CyQuant™ NF cell proliferation assay (Invitrogen) based on the measurement of cellular DNA content via fluorescent dye binding. Following the manufacturer's directions, 50 µL of CyQuant™ dye reagent/HBSS buffer (1/500 [v/v]) were added to each well of the above mentioned receiving 96-well plate. After incubation for 0.5 h at room temperature the plate was sealed and the fluorescence intensity of each sample was measured by using a Wallac 1420 VICTOR^2™ plate reader (PerkinElmer) with excitation at 485 nm and emission detection at 535 nm. Finally, the data were normalized by using the controls and IC50-values were determined using GraphPad Prism™ (GraphPad) by fitting a logarithmic curve to the averaged datapoints.

[3] = Plasma stability, mouse plasma; assay type: in vitro ADME; settings: mouse plasma, 37° C, last time point 1440 min
Protocol: (§1) The stability of the peptides in human and mouse plasma was determined by applying the following method: 346.5 µL/deep well of freshly thawed human plasma (Basler Blutspende-dienst) and mouse plasma (Harlan Sera-Lab, UK), respectively, were spiked with 3.5 µL/well of compound dissolved in DMSO/H2O (90/10 [v/v], 1 mM, triplicate) and incubated at 37° C. At t = 0, 15, 30, 60, 120, 240 and 1440 min aliquots of 50 µL were transferred to filtration plate wells containing 150 µL/well of 2% formic acid in acetonitrile. Following shaking for 2 min the occurred suspensions were filtrated by vacuum. 100 µL of each filtrate were transferred to a propylene microtiter plate and dried under N2. The residual solids were reconstituted by adding 100 µL/well of water/acetonitrile, 95/5 (v/v) + 0.2% formic acid and analyzed by LC/MS as follows: Column: Waters, XBridge C18, mobile phases: (A) water + 0.1% formic acid and (B) acetonitrile/water, 95/5 (v/v) + 0.1% formic acid, gradient: 5%-100% (B) in 1.8 minutes, electrospray ionization, MRM detection (triple quadrupole). The peak areas were determined and triplicate values are averaged. The stability is expressed in percent of the initial value at t = 0. (tx/t0 x 100). By using the TREND function of EXCEL (Microsoft Office 2003) T1/2 were determined.

[4] = Plasma stability, human plasma; assay type: in vitro ADME; settings: human plasma, 37° C, last time point 1440 min
Protocol: as §1

[5] = system: human red blood cells (hRBC); experiment: Hemolysis; assay type: cell-based; settings: 100 µM, 20% hRBC, 1 h at 37°C
Protocol: The peptides were tested for their hemolytic activity against human red blood cells (hRBC). Fresh hRBC were washed four times with phosphate buffered saline (PBS) and centrifuged for 10 min at 3000 x g. Compounds (100 µM) were incubated with 20% hRBC (v/v) for 1 h at 37°C and shaking at 300 rpm. The final erythrocyte concentration was approximately 0.9 x 10^9 cells/mL. A value of 0% and 100% cell lysis, respectively, was determined by incubation of hRBC in the presence of PBS containing 0.001% acetic acid and 2.5% Triton X-100 in H2O respectively. The samples were centrifuged, the supernatants were 8-fold diluted in PBS buffer and the optical densities (OD) were measured at 540 nm. The 100% lyses value (OD540H2O) gave an OD540 of approximately 0.5-1.0. Percent hemolysis was calculated as follows: (OD540peptide/OD540H2O) x 100%. [formula]

SMILES | CLiv, human (allometric scaled) [1] | IC50 [2] | Plasma stability mouse pl. T1/2 [3] | Plasma stability human pl. T1/2 [4] | Hemolysis at 100 µM [5]
CC(C)NCCCC[C@@H]1NC(=O)[C@H](CCC(N)=O)NC(=O)[C@H](Cc2ccc(O)cc2)NC(=O)[C@@H]2CSSC[C@H](NC(=O)[C@H](C)NC(=O)[C@H](Cc3c[nH]cn3)NC(=O)[C@H](Cc3ccc(O)cc3)NC(=O)[C@@H]3CCCN3C(=O)[C@H]3CCCN3C1=O)C(=O)N[C@@H](CO)C(=O)N[C@@H](C)C(=O)N[C@H](Cc1ccc(O)cc1)C(=O)N[C@@H](CCN)C(=O)N[C@@H](CCCNC(=N)N)C(=O)N[C@@H](Cc1ccc(O)cc1)C(=O)N2 [Ex. 3, cyclo(-Tyr^1-His^2-Ala^3-Cys^4-Ser^5-Ala^6-^DTyr^7-Dab^8-Arg^9-Tyr^10-Cys^11-Tyr^12-Gln^13-Lys(iPr)^14-^DPro^15-Pro^16-), disulfide bond between Cys^4 and Cys^11] (cyclo(YHACSA[dY][Dab]RYCYQ[Lys(iPr)][dP]P); disulfide 4-11) | 141 mL/h/kg | 0.11 ± 0.01 nM | 1440 min | 1440 min | 1.0%
CC(C)NCCCC[C@@H]1NC(=O)[C@H](CCC(N)=O)NC(=O)[C@H](Cc2ccc(O)cc2)NC(=O)[C@@H]2CSSC[C@H](NC(=O)[C@H](Cc3ccc(O)cc3)NC(=O)[C@H](Cc3c[nH]cn3)NC(=O)[C@H](Cc3ccc(O)cc3)NC(=O)[C@@H]3CCCN3C(=O)[C@H]3CCCN3C1=O)C(=O)N[C@@H](CO)C(=O)N[C@@H](C)C(=O)N[C@H](Cc1ccc(O)cc1)C(=O)N[C@@H](CCCNC(C)C)C(=O)N[C@@H](CCCNC(=N)N)C(=O)N[C@@H](Cc1ccc(O)cc1)C(=O)N2 [Ex. 5, cyclo(-Tyr^1-His^2-Tyr^3-Cys^4-Ser^5-Ala^6-^DTyr^7-Orn(iPr)^8-Arg^9-Tyr^10-Cys^11-Tyr^12-Gln^13-Lys(iPr)^14-^DPro^15-Pro^16-), disulfide bond between Cys^4 and Cys^11] (cyclo(YHYCSA[dY][Orn(iPr)]RYCYQ[Lys(iPr)][dP]P); disulfide 4-11) | 106 mL/h/kg | 0.43 ± 0.24 nM | 1440 min | 1440 min | 3.5%
